# Measured values reported in US8076318B2, “Caged ligands and uses thereof” (priority 2002, dated 2011).
# What was measured:
# [1] = test system: EcR/RXR; experiment: Luciferase expression in transiently transfected 293T cells with and without 1 min illumination; assay type: cell-based; details: for Fold luciferase induction / Activity as inducing agent in the luciferase-based gene expression system (in words): 293T cells; for Fold luciferase induction: culture media/2% MeOH; for Activity as inducing agent in the luciferase-based gene expression system (in words): without light
# Description: Plasmid Description. The luciferase reporter (E/GRE)6TK81LUC consists of multimeric E/GRE binding sites from (E/GRE)4ΔMTVLuc linked to the minimal TK promoter in the pA3LUC reporter plasmid. The modified MMTV promoter from MMTVp206 that incorporates the 5′UTR of v-Ha-ras was inserted into a vector containing a modified ecdysone receptor VgEcR (a gift from R. Evans) to form MMTV-VgEcR.
# Cell Culture, DNA Transfection, and Luciferase Assays. Cell culture, DNA transfection, and luciferase assays were performed as previously described (Wantanable et al., 1966). Briefly, 293-derived BOSC cells (293T) were seeded into individual wells of a 24 well plate and maintained in Dulbecco's modified Eagles medium with 10% fetal calf serum and 1% penicillin/streptomycin. Cells were transiently transfected with pVgEcR/RXRα and (E/GRE)6TKLUC via a standard calcium phosphate method. The media was changed after 14 hr and the cells treated with 10 μL of 5 mM β-ecdysone 1 (FIG. 1) in methanol (to furnish a 100 μM final concentration of ecdysteroid). Cells were either left un-illuminated or illuminated for 1 min using an Oriel 200 W Hg arc lamp (model 6283) with a 348 nm filter (Oriel, lot number 51260, 50% internal transmittance at 348 nm and cutoff at <325 nm) to remove short wavelength light and two IR filters to remove heat. Cells were subsequently lysed as previously described and the luciferase assay performed at room temperature using an Autolumat LB 953 (EG & G, Berthold). Luciferase content was measured by calculating the light emitted during 10 sec of the reaction. The values are expressed in arbitrary light units.
# Light-Driven Luciferase Expression in Transiently Transfected 293T Cells. We employed a luciferase-based expression system to examine the biological activity of β-ecdysone and its alkylated analog 4. The 293T cell line was transiently transfected to constitutively express EcR/RXR and inducibly express (upon exposure to β-ecdysone) luciferase. Compound 4 was added to the transfected 293T cells, the cell culture subsequently illuminated, and luciferase activity assessed (Table 1). There is little observable luciferase activity with culture media alone. Exposure of the cells to the bioactive β-ecdysone 1 generates a nearly 90-fold induction of luciferase. By contrast, the caged analog 4 furnishes a slight 6-fold induction of activity over that of culture media alone. […] The latter is consistent with our observation that a 1 min photolysis time window converts approximately 60% of the caged derivative 4 into its bioactive counterpart 1. Finally, illumination in the absence of ligand fails to induce luciferase production.
# [2] = Photolysis of caged β-ecdysone 4, HPLC analysis and ferrioxalate actinometry; assay type: physicochemical; details: ferrioxalate actinometry, HPLC peak areas
# Method: Photolysis of Caged β-ecdysone 4. A 500 μL 100 μM solution of 4 in 2% methanol/98% water was placed in a 24-well culture plate. Photolysis was performed using an Oriel 200 W Hg arc lamp (model 6283) with a 348 nm filter (Oriel, lot number 51260; 50% internal transmittance at 348 nm and cutoff at 325 nm) to remove short wavelength light and an IR filter to remove heat. Aliquots of 10 μL were removed at different time points of photolysis and were analyzed by analytical HPLC (monitored at 242 nm) employing a Vydac C4 (250 mm×3.0 mm) column and using the following solvent system: a linear gradient from 95% A (water):5% B (acetonitrile) to 50% A (water):50% (acetonitrile) over 15 min followed by 50% A (water):50% B (acetonitrile) for 5 min with flow rate at 1 mL/min.
# Photoconversion of Caged β-Ecdysone 4 to β-Ecdysone 1. A preliminary assessment of the light-induced conversion of the caged analog 4 to β-ecdysone 1 was performed using a 24-well plate system. […] Aliquots from the wells were subsequently analyzed by HPLC to assess formation of 1 (data not shown). […] The photochemical quantum yield (φ=0.034) was determined using ferrioxalate actinometry (Hatchard & Parker, 1956) according to the equation φ=ΔP/(I×t), where t is the irradiation time, ΔP is the amount of photolabile converted, and was determined using HPLC peak areas.
# [3] = test system: EcR/RXR; experiment: Time-dependent luciferase assays after photolysis, with or without washing out extracellular ligand; assay type: cell-based
# Method: Time-dependent luciferase assays. 293T cells were split in a 24-well culture plate (Becton Dickinson Labware, lot #353047) and were transfected by a calcium phosphate method. The cells in 500 μL culture medium were incubated with either 100 μM caged β-ecdysone, 100 μM β-ecdysone, or absent an ecdysteroid ligand. After the cells were incubated with caged β-ecdysone for 16 hours, the medium was removed and washed with PBS once. A fresh medium free of ligand was then immediately added just prior to UV light exposure for 1 min. In the “Caged+hv” experiment, the caged β-ecdysone ligand remained in the medium and these cells were likewise illuminated for 1 min. Cells that were not exposed to ecdysteroid ligand were treated in an otherwise analogous fashion. The cells were then returned to the incubator for various time intervals. Incubation was terminated by treating cells with an extraction buffer (1% Triton X-100 and 1 mM DTT in GME). Luciferase activity was preformed as described above.
# Cells were pre-incubated with the caged β-ecdysone 4 for 16 hr, illuminated for 1 min, and then lysed at various time points following photolysis. […] The 293T cell line was pre-incubated with 4 for 16 hr, the media subsequently removed, and the cells washed with PBS. Ecdysone-free media was then added, the cell culture incubated for various time points, and tested for luciferase activity. The gene expression kinetic profile is nearly identical for the two sets of experiments [(4+photolysis) versus (4+washing+photolysis)] during the first 5 hr, which is consistent with the notion that caged β-ecdysone 4 is intracellularly liberated (FIG. 3).
# What is the time-dependence of β-ecdysone-induced luciferase expression? We addressed this question by pre-incubating 293T cells with the caged derivative 4 for 16 hr followed by illumination for 1 min. Cells were subsequently incubated for various time intervals, lysed, and luciferase activity assessed. […]
# [4] = test system: EcR/RXR; experiment: Immunodetection of intracellularly expressed luciferase, spot illumination; assay type: cell-based; details: 293T cells; for Luciferase expression by immunofluorescence, without illumination: 100 μM, 16 hr incubation, no light; for Luciferase expression by immunofluorescence after spot illumination: 4 washed out, spot illuminated (~0.25 mm^2) 10 sec, 6 hr incubation
# Method: Immunodetection of Intracellularly Expressed Luciferase. 293T cells were transferred to the individual wells of a 24-well culture plate (Becton Dickinson Labware, lot #353047) and transfected as described above. The cells were then incubated with either 100 μM β-ecdysone or 100 μM caged β-ecdysone for 16 hr. The medium was removed and the cells washed once with PBS before addition of an ecdysteroid free medium. The surface of the pre-scored wells was spot illuminated (˜0.25 mm^2) for 10 sec on a light microscope using a 100 W Hg-Arc lamp through an Olympus UAPO 20×/0.40 objective. The cells were then incubated for 6 hr, fixed with 4% formaldehyde in PBS for 60 min, washed with PBS 3×5 min, permeabilized with 0.1% TritonX100 for 10 min, washed with PBS 3×5 min, and blocked with 1% normal donkey serum (Jackson ImmunoResearch catalog #017-000-121) in PBS for 45 min. The cells were subsequently exposed to 300 μL of anti-luciferase pAb (polyclonal goat antibody, Promega, lot #149040) at a concentration of 40 μg/mL in 1% donkey serum in PBS. After incubation for 2 hr at room temperature in a humidified chamber, the cells were washed with PBS 3×15 min and exposed to 300 μL of an Alexa Fluor 568-labeled rabbit anti-goat IgG (20 μg/mL in 1% donkey serum/PBS for 1 hr, Molecular Probes, catalog #A-11079). Unbound antibody was removed by washing with PBS 3×15 min and the cells treated with 300 μL of mounting medium (N-propyl gallate at 6 mg/mL in 1:1 glycerol:PBS). Images were taken using an Olympus IX-70 microscope equipped with a CCD camera.
# Light-Driven Spatially-Discrete Luciferase Expression in Transiently Transfected 293T Cells. We examined whether the combination of 4 and spot illumination induces gene activation in a spatially discrete fashion. Transiently transfected 293T cells were incubated with 1 for 16 hr, fixed, permeabilized, exposed to a luciferase antibody, and stained with an Alexa-labeled secondary antibody. […] 293T cells were also exposed to 4, the media replaced with fresh media to remove extracellular 4, and spot illuminated (˜0.25 mm^2) for 10 sec. The cells were then returned to the incubator for 6 hr and subsequently analyzed for luciferase expression.
# However, if photo-uncaged intracellular β-ecdysone does migrate to the extracellular environment then it is possible that sites distant from the region of illumination could undergo unintentional gene activation as well. On the other hand, given the small intracellular volume of a typical cell (˜1 pL) it is likely that any uncaged β-ecdysone that escapes from its intracellular locale will be too dilute to effect changes in gene expression profiles at remote sites. We explicitly addressed this possibility by examining spatially-discrete gene activation using spot illumination of cultured 293T cells. Luciferase expression in fixed and permeabilized cells was visually identified via the coupled use of a luciferase antibody and a secondary Alexa-labeled antibody. […] Luciferase expression is not observed in the absence of β-ecdysone (data not shown) nor in the presence of caged β-ecdysone without light (see below). […] Regions outside of the zone of illumination fail to display luciferase expression.
# [5] = test system: ecdysone-inducible gene expression system; details: cell-based systems; No et al., 1996; Albanese et al., 2000; cited from earlier work
# [6] = 100 μM ecdysteroid, not illuminated, versus culture media alone
# [7] = 293T cells pre-incubated 16 hr with 4, illuminated 1 min
smiles,measurement,setting,value
COc1cc(COC2CC3(C)C(CC2O)C(=O)C=C2C3CCC3(C)C(C(C)(O)C(O)CCC(C)(C)O)CCC23O)c([N+](=O)[O-])cc1OC (stereo not drawn) [caged β-ecdysone 4],Luciferase expression relative to that displayed by β-ecdysone 1,"[1]; 293T cells treated with 4, 1 min photolysis",approximately 60%
same,Fold luciferase induction,[1]; [6],6 fold
same,Fold luciferase induction,"[1]; 100 μM ecdysteroid, not illuminated, versus culture media alone, listed as caged β-ecdysome 4",6.5 ± 0.1 fold
same,Fold luciferase induction,"[1]; 100 μM, 1 min hν (348 nm filter, Hg arc lamp)",50 ± 4 fold
same,Activity as inducing agent in the luciferase-based gene expression system (in words),[1],virtually inactive
same,Activity as inducing agent in the luciferase-based gene expression system (in words),[1]; listed as caged ecdysteroid,nearly inactive
same,Photochemical quantum yield φ,[2],0.034
same,Luciferase activity relative to maximal activity displayed by β-ecdysone,[3]; 4 + washing (extracellular 4 removed) + 1 min photolysis,50%
same,Post-illumination time at which minimal luciferase activity was first observed,[3]; [7],4 h
same,Time of maximal gene (luciferase) expression after photolysis,[3]; [7],16 h
same,"Luciferase expression by immunofluorescence, without illumination",[4],failed to exhibit detectable luciferase expression
same,Luciferase expression by immunofluorescence after spot illumination,[4],spatially discrete luciferase expression is observed
same,Luciferase expression by immunofluorescence after spot illumination,[4]; listed as 4,Only those regions exposed to UV light display luciferase production
"CC(C)CC[C@@H](O)[C@](C)(O)[C@H]1CC[C@@]2(O)C3=CC(=O)[C@]4(O)C[C@@H](O)[C@@H](O)C[C@]4(C)[C@H]3[C@H](O)C[C@]12C [muristerone 6, muristerone]",Activity relative to β-ecdysone,[5],"1,000 times"
"CC(C)CC[C@@H](O)[C@](C)(O)[C@H]1CC[C@@]2(O)C3=CC(=O)[C@@H]4C[C@@H](O)[C@@H](O)C[C@]4(C)[C@H]3CC[C@]12C [ponasterone A 7, ponasterone A]",Activity relative to β-ecdysone,[5],"1,000 times"
"CC(C)(O)CC[C@@H](O)[C@](C)(O)[C@H]1CC[C@@]2(O)C3=CC(=O)[C@@H]4C[C@@H](O)[C@@H](O)C[C@]4(C)[C@H]3CC[C@]12C [β-ecdysone 1, β-ecdysone, reference compound]",Fold luciferase induction,[1]; [6],88 ± 9 fold
same,Fold luciferase induction,"[1]; 100 μM ecdysteroid, not illuminated, versus culture media alone, listed as β-ecdysone",~100 fold
same,"Luciferase expression by immunofluorescence, without illumination",[4],global luciferase expression throughout the cell culture
same,"Luciferase expression by immunofluorescence, without illumination",[4]; listed as 1,luciferase expression (20% transfection efficiency) was observed throughout the general cell population
